# The source made the active and inactive calls. The calls are words filed in the database; no cut-off is given here.
# Columns and labels:
# Mus musculus [1] = test: Antiarthritic activity in collagen-induced rheumatoid arthritis DBA/1 mouse model assessed as reduction in clinical score at 15 mg/kg, po BID administered for 14 days starting from 7 days before immunization to 21 days after immunization and measured on day 41 post immunization (reference value: 5.75); assay type: functional; settings: time 14 day
# Mus musculus [2] = test: Antiarthritic activity in collagen-induced rheumatoid arthritis DBA/1 mouse model assessed as inhibition rate at 15 mg/kg, po BID administered for 14 days starting from 7 days before immunization to 21 days after immunization and measured on day 41 post immunization; assay type: functional; settings: DBA/1, 336 h, time 14 day
# [3] = target: ALK tyrosine kinase receptor (Homo sapiens) (UniProt Q9UM73); test: Inhibition of human ALK assessed as residual activity at 30 uM relative to control
# Sequence of ALK tyrosine kinase receptor (Homo sapiens) (Q9UM73 19-1620 limits assumed): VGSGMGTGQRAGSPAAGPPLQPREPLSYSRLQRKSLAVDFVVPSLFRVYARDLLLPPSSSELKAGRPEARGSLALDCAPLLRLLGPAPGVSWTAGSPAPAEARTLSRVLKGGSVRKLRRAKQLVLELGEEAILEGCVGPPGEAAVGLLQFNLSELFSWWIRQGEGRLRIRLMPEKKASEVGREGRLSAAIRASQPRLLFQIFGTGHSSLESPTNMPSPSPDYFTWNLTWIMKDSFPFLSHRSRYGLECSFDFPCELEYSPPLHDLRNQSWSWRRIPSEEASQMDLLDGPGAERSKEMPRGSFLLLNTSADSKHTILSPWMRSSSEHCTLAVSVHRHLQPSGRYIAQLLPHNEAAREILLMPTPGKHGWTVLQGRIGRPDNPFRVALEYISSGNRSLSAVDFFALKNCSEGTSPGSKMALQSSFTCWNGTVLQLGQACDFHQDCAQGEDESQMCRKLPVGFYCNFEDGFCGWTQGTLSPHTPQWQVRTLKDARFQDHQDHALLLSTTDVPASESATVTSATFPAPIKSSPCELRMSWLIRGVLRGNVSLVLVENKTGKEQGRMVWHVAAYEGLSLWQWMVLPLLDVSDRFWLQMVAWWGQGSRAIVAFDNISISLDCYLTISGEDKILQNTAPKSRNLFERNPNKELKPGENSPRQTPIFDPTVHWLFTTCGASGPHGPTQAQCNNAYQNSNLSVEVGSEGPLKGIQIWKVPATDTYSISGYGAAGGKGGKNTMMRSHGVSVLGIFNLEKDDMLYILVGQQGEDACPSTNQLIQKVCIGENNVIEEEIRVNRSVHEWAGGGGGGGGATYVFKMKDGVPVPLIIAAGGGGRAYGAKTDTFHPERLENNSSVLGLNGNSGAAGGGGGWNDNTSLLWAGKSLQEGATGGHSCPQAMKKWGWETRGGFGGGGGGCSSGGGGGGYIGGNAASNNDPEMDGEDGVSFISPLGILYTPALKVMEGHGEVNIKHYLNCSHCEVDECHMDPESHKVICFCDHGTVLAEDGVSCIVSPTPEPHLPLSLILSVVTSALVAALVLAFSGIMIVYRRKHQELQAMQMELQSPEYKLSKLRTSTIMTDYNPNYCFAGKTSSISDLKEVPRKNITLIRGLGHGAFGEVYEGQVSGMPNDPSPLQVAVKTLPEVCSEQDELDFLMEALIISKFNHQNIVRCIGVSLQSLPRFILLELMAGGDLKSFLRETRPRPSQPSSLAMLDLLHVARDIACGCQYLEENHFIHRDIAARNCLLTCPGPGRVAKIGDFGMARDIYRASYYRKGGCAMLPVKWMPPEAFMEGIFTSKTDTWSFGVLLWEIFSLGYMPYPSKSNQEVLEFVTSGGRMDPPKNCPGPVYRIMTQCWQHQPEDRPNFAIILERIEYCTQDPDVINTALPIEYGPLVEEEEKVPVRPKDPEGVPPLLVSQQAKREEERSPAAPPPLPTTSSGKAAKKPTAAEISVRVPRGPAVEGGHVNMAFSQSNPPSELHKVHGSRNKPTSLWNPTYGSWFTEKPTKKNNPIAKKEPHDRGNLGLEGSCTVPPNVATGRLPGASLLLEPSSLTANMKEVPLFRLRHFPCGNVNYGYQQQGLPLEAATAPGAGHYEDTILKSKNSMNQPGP
# [4] = target: 5'-AMP-activated protein kinase catalytic subunit alpha-1 (Homo sapiens) (UniProt Q13131); test: Inhibition of human AMPKalpha1 assessed as residual activity at 30 uM relative to control
# [5] = target: Cytoplasmic tyrosine-protein kinase BMX (Homo sapiens) (UniProt P51813); test: Inhibition of human BMX assessed as residual activity at 30 uM relative to control
# Sequence of Cytoplasmic tyrosine-protein kinase BMX (Homo sapiens) (P51813 whole entry): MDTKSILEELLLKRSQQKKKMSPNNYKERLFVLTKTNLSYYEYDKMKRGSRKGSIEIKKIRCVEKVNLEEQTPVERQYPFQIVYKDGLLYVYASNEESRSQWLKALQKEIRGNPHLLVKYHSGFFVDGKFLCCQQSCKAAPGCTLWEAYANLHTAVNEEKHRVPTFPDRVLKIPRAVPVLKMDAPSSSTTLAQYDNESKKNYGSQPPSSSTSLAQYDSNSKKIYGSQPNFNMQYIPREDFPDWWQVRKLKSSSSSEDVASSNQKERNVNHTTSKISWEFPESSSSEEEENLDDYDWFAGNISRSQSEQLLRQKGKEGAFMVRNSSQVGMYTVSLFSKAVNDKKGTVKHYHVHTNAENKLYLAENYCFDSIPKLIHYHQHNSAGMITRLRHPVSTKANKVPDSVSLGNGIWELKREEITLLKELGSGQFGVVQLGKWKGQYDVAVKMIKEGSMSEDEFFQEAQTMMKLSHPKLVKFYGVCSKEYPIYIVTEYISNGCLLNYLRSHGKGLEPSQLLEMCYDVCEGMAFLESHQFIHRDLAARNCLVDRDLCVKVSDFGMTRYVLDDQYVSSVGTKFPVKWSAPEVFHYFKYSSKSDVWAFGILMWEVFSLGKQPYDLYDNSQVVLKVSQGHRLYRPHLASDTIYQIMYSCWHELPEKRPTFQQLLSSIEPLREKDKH
# [6] = target: Insulin-like growth factor 1 receptor (Homo sapiens) (UniProt P08069); test: Inhibition of human IGF1R assessed as residual activity at 30 uM relative to control
# [7] = target: Tyrosine-protein kinase SYK (Homo sapiens) (UniProt P43405); test: Inhibition of human SYK assessed as residual activity at 30 uM relative to control
# [8] = target: Serine/threonine-protein kinase B-raf (Homo sapiens) (UniProt P15056); test: Inhibition of human B-raf assessed as residual activity at 30 uM relative to control
# [9] = target: Calcium/calmodulin-dependent protein kinase type II subunit alpha (Homo sapiens) (UniProt Q9UQM7); test: Inhibition of human CAMKIIalpha assessed as residual activity at 30 uM relative to control
# [10] = target: CDK2/Cyclin A2 (Homo sapiens) (UniProt P24941+P20248); test: Inhibition of human CDK2/Cyclin A assessed as residual activity at 30 uM relative to control; assay type: protein-complex assay
# [11] = target: Serine/threonine-protein kinase Chk1 (Homo sapiens) (UniProt O14757); test: Inhibition of human CHK1 assessed as residual activity at 30 uM relative to control
# [12] = target: Platelet-derived growth factor receptor beta (Homo sapiens) (UniProt P09619); test: Inhibition of human PDGFRbeta assessed as residual activity at 30 uM relative to control
# [13] = target: Vascular endothelial growth factor receptor 2 (Homo sapiens) (UniProt P35968); test: Inhibition of human KDR assessed as residual activity at 30 uM relative to control
# Sequence of Vascular endothelial growth factor receptor 2 (Homo sapiens) (P35968 whole entry): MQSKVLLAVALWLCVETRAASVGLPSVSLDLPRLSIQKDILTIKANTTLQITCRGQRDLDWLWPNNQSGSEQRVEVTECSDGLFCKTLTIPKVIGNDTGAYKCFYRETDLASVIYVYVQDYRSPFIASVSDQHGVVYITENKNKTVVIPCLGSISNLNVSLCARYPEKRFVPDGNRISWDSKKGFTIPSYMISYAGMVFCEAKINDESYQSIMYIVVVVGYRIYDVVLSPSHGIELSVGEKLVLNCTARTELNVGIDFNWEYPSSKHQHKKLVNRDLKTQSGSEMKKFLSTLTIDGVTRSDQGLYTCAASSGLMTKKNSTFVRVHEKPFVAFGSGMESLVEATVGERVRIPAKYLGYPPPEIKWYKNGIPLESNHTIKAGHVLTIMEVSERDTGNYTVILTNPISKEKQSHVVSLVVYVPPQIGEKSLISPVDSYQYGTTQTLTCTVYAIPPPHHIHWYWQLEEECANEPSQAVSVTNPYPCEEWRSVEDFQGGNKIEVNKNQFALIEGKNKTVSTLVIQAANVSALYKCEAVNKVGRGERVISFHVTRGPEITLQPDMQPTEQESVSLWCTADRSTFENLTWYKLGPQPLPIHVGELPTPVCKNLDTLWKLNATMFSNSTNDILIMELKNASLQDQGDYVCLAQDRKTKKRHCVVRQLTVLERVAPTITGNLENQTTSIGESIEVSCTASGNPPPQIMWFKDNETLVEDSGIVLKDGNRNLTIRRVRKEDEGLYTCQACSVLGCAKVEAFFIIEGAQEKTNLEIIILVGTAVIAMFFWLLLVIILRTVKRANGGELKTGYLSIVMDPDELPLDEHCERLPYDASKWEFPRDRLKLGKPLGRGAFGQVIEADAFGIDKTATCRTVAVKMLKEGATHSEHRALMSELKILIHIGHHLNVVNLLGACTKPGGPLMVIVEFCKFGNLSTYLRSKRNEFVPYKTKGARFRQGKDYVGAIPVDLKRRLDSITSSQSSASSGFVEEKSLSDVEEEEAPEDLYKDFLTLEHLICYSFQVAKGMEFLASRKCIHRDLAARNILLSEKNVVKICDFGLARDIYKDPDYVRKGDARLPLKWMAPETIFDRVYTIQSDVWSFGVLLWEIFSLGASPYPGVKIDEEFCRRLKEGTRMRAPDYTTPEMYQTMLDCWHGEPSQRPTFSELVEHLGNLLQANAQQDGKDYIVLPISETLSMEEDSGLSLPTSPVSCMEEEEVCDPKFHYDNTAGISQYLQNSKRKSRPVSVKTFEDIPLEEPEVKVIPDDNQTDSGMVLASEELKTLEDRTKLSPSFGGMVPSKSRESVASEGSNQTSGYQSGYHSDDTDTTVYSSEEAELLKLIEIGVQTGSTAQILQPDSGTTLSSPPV
# [14] = target: Tyrosine-protein kinase Lck (Homo sapiens) (UniProt P06239); test: Inhibition of human LCK assessed as residual activity at 30 uM relative to control
# [15] = target: Serine/threonine-protein kinase MAK (Homo sapiens) (UniProt P20794); test: Inhibition of human MAK assessed as residual activity at 30 uM relative to control
# [16] = target: MAP kinase-activated protein kinase 2 (Homo sapiens) (UniProt P49137); test: Inhibition of human MAPKAPK2 assessed as residual activity at 30 uM relative to control
# [17] = target: Casein kinase I (Homo sapiens) (UniProt Q9HCP0+P78368+P48730+P49674+P48729); test: Inhibition of CK1 (unknown origin) assessed as residual activity at 30 uM relative to control; assay type: protein assay
# [18] = target: Ephrin type-A receptor 2 (Homo sapiens) (UniProt P29317); test: Inhibition of human EPHA2 assessed as residual activity at 30 uM relative to control
# Sequence of Ephrin type-A receptor 2 (Homo sapiens) (P29317 whole entry): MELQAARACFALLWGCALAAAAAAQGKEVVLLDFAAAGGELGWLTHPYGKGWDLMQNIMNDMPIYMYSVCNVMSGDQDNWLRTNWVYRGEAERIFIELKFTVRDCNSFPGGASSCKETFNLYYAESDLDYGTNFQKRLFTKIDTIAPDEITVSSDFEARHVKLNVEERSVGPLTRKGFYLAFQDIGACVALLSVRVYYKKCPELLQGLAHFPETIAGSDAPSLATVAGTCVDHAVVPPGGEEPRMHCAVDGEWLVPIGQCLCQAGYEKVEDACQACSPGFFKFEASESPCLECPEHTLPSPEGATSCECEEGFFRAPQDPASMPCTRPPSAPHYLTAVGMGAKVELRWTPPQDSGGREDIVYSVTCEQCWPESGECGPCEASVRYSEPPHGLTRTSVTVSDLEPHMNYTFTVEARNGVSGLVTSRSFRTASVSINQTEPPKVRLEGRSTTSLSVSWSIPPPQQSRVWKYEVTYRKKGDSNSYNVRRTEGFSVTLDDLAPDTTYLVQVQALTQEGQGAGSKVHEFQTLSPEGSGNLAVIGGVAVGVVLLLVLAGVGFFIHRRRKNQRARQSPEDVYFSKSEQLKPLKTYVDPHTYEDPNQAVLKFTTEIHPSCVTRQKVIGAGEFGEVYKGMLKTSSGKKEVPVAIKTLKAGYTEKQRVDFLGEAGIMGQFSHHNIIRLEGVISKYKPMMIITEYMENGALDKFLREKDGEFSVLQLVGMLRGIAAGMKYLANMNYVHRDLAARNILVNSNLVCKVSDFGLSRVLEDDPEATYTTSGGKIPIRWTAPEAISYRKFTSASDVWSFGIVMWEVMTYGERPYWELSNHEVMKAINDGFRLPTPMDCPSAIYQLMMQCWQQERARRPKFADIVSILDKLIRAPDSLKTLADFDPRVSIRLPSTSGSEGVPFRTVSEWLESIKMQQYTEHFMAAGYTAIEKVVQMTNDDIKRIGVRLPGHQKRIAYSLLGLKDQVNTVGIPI
# [19] = target: [Pyruvate dehydrogenase (acetyl-transferring)] kinase isozyme 1, mitochondrial (Homo sapiens) (UniProt Q15118); test: Inhibition of human PDK1 assessed as residual activity at 30 uM relative to control
# [20] = target: Misshapen-like kinase 1 (Homo sapiens) (UniProt Q8N4C8); test: Inhibition of human MINK assessed as residual activity at 30 uM relative to control
# [21] = target: Serine/threonine-protein kinase 26 (Homo sapiens) (UniProt Q9P289); test: Inhibition of human MST4 assessed as residual activity at 30 uM relative to control
# Sequence of Serine/threonine-protein kinase 26 (Homo sapiens) (Q9P289 2-416 limits assumed): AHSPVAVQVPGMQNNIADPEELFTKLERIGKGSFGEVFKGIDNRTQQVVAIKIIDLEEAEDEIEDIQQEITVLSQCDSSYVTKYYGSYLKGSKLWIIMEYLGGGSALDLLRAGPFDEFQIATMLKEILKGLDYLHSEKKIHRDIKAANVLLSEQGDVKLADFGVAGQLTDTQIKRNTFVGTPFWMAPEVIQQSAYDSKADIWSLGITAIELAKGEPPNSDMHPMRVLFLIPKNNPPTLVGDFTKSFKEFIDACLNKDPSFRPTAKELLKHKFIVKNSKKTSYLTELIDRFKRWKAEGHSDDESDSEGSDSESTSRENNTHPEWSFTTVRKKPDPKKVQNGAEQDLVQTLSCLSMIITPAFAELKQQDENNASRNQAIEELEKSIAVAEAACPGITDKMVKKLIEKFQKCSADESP
# [22] = target: Serine/threonine-protein kinase mTOR (Homo sapiens) (UniProt P42345); test: Inhibition of human mTOR assessed as residual activity at 30 uM relative to control
# [23] = target: Proto-oncogene tyrosine-protein kinase Src (Homo sapiens) (UniProt P12931); test: Inhibition of human Src (1 to 530 residues) assessed as residual activity at 30 uM relative to control
# [24] = Volume of distribution at steady state in Sprague-Dawley rat at 1 mg/kg, iv measured for 24 hrs by LC-MS/MS analysis; assay type: ADME, organism-based; settings: in vivo, read-out: Vdss
# [25] = Clearance in beagle dog at 0.2 mg/kg, iv measured for 24 hrs by LC-MS/MS analysis; assay type: ADME, organism-based, Canis lupus familiaris; settings: in vivo
# [26] = AUC in beagle dog at 5 mg/kg, po measured for 24 hrs by LC-MS/MS analysis; assay type: ADME, organism-based, Canis lupus familiaris; set-up: time 24 hrs, dose 5 mg/kg, route po; settings: in vivo
# Rattus norvegicus [27] = test: Antiarthritic activity in adjuvant-induced arthritis rat model assessed as clinical score at 1 mg/kg, po administered twice a day for 14 days starting from day 13 to 27 post immunization and measured every 3 days a week; assay type: functional; settings: time 14 day
# Rattus norvegicus [28] = test: Antiarthritic activity in adjuvant-induced arthritis rat model assessed as clinical score at 3 mg/kg, po administered twice a day for 14 days starting from day 13 to 27 post immunization and measured every 3 days a week; assay type: functional; settings: time 14 day
# Rattus norvegicus [29] = test: Antiarthritic activity in adjuvant-induced arthritis rat model assessed as clinical score at 10 mg/kg, po administered twice a day for 14 days starting from day 13 to 27 post immunization and measured every 3 days a week; assay type: functional; settings: time 14 day
# Rattus norvegicus [30] = test: Antiarthritic activity in adjuvant-induced arthritis rat model assessed as clinical score at 30 mg/kg, po administered twice a day for 14 days starting from day 13 to 27 post immunization and measured every 3 days a week; assay type: functional; settings: time 14 day
# Rattus norvegicus [31] = test: Antiarthritic activity in adjuvant-induced arthritis rat model assessed as reduction in paw volume at 1 mg/kg, po administered twice a day for 14 days starting from day 13 to 27 post immunization and measured every 3 days a week; assay type: functional; settings: time 14 day
# Rattus norvegicus [32] = test: Antiarthritic activity in adjuvant-induced arthritis rat model assessed as recovery of body weight at 1 to 30 mg/kg, po administered twice a day for 14 days starting from day 13 to 27 post immunization and measured every 3 days a week; assay type: functional, organism-based; settings: dose 1-30 mg/kg, time 14.0 day
# [33] = Toxicity in rat assessed as reduction in food intake at 10 mg/kg/day, po administered via gavage once a day pretreated for 9 weeks prior to co-cage and measured on day 74; assay type: organism-based; set-up: scale not given: the % may be the effect or the level left; settings: in vivo, 1776 h, time 74 day
# [34] = Toxicity in rat assessed as reduction in food intake at 10 mg/kg/day, po administered via gavage once a day pretreated for 9 weeks prior to co-cage and measured on day 84; assay type: organism-based; set-up: scale not given: the % may be the effect or the level left; settings: in vivo, 2016 h, time 84 day
# in vivo = settings: beagle, dog, po, 5 mg/kg
smiles,measurement,setting,value
O=C(Nc1nc2cccc(C3CCC4(CC3)CN(C(=O)[C@@H]3CC3(F)F)C4)n2n1)C1CC1,Activity,Mus musculus [1],1.5
same,inhibition in vivo at 15 mg/kg,Mus musculus [2],59.9%
same,Activity,[3],101%
same,Activity,[4],110%
same,Activity,[5],99%
same,Activity,[6],129%
same,Activity,[7],88%
same,Activity,[8],84%
same,Activity,[9],88%
same,Activity,[10],66%
same,Activity,[11],99%
same,Activity,[12],85%
same,Activity,[13],31%
same,Activity,[14],74%
same,Activity,[15],104%
same,Activity,[16],112%
same,Activity,[17],102%
same,Activity,[18],102%
same,Activity,[19],80%
same,Activity,[20],107%
same,Activity,[21],99%
same,Activity,[22],104%
same,Activity,[23],86%
same,Vd,[24],1.81 L/kg
same,clearance,[25],5.73 mL/min/kg
same,AUC at 24 h,[26],16700 ng·h/mL
same,Activity,Rattus norvegicus [27],5.4
same,Activity,Rattus norvegicus [28],3.9
same,Activity,Rattus norvegicus [29],3.2
same,Activity,Rattus norvegicus [30],2.7
same,Activity,Rattus norvegicus [31],1.91 mL
same,Activity,Rattus norvegicus [32],Active
same,Activity,[33],6.1%
same,Activity,[34],7.8%
same,bioavailability at 24 h,in vivo,106%

# — ChEMBL document CHEMBL5150077, “Identification of TUL01101: A Novel Potent and Selective JAK1 Inhibitor for the Treatment of Rheumatoid Arthritis” (J Med Chem, 2022)
